≈ marks a conversion by molar mass, not a printed value.
Tests used:
Format in all cases: functional
[1] = test system: Haemophilus influenzae; assay: Antibacterial activity against Haemophilus influenzae 2762
[2] = test system: Staphylococcus aureus; assay: Antibacterial activity against Staphylococcus aureus 29213
[3] = test system: Staphylococcus aureus; assay: Antibacterial activity against Staphylococcus aureus 33591
[4] = test system: Staphylococcus epidermidis; assay: Antibacterial activity against Staphylococcus epidermidis 14990
[5] = test system: Staphylococcus epidermidis; assay: Antibacterial activity against Staphylococcus epidermidis f50654
[6] = test system: Enterococcus faecalis; assay: Antibacterial activity against Enterococcus faecalis 29212
[7] = test system: Enterococcus faecalis; assay: Antibacterial activity against Enterococcus faecalis bc11148-2
[8] = test system: Streptococcus pyogenes; assay: Antibacterial activity against Streptococcus pyogenes 8668
[9] = test system: Streptococcus pneumoniae; assay: Antibacterial activity against Streptococcus pneumoniae 49619
[10] = test system: Streptococcus pneumoniae; assay: Antibacterial activity against Streptococcus pneumoniae 297-749
[11] = test system: Streptococcus pneumoniae; assay: Antibacterial activity against Streptococcus pneumoniae 280-962
[12] = test system: Streptococcus pneumoniae; assay: Antibacterial activity against Streptococcus pneumoniae Erm 6849
[13] = test system: Streptococcus pneumoniae; assay: Antibacterial activity against Streptococcus pneumoniae Mef 5654
[14] = test system: Streptococcus pneumoniae; assay: Antibacterial activity against Streptococcus pneumoniae Mef S 3427
[15] = test system: Haemophilus influenzae; assay: Antibacterial activity against Haemophilus influenzae 49247

SMILES | MIC [1] | MIC [2] | MIC [3] | MIC [4] | MIC [5] | MIC [6] | MIC [7] | MIC [8] | MIC [9] | MIC [10] | MIC [11] | MIC [12] | MIC [13] | MIC [14] | MIC [15]
C=C[C@]12OC(=O)N(CCN(C)Cc3cnc(-c4cccnc4)s3)[C@@H]1[C@@H](C)C(=O)[C@H](C)C[C@@](C)(OC)[C@H](O[C@@H]1O[C@H](C)C[C@H](N(C)C)[C@H]1O)[C@@H](C)C(=O)[C@@H](C)C(=O)O[C@@H]2CC | 3.13 µg/mL (≈ 3.66 µM) | 0.1 µg/mL (≈ 0.117 µM) | > 50 µg/mL | 0.1 µg/mL (≈ 0.117 µM) | 0.1 µg/mL (≈ 0.117 µM) | 0.1 µg/mL (≈ 0.117 µM) | 0.4 µg/mL (≈ 0.467 µM) | ≤ 0.05 µg/mL | ≤ 0.05 µg/mL | ≤ 0.05 µg/mL | ≤ 0.05 µg/mL | 0.78 µg/mL (≈ 0.911 µM) | 0.4 µg/mL (≈ 0.467 µM) | 0.1 µg/mL (≈ 0.117 µM) | 12.5 µg/mL (≈ 14.6 µM)
C=C[C@]12OC(=O)N(CCN(C)Cc3ccc(-c4cccnc4)s3)[C@@H]1[C@@H](C)C(=O)[C@H](C)C[C@@](C)(OC)[C@H](O[C@@H]1O[C@H](C)C[C@H](N(C)C)[C@H]1O)[C@@H](C)C(=O)[C@@H](C)C(=O)O[C@@H]2CC | 3.13 µg/mL (≈ 3.66 µM) | 0.2 µg/mL (≈ 0.234 µM) | > 50 µg/mL | 0.1 µg/mL (≈ 0.117 µM) | 0.2 µg/mL (≈ 0.234 µM) | 0.1 µg/mL (≈ 0.117 µM) | 0.4 µg/mL (≈ 0.468 µM) | ≤ 0.05 µg/mL | ≤ 0.05 µg/mL | ≤ 0.05 µg/mL | ≤ 0.05 µg/mL | 0.2 µg/mL (≈ 0.234 µM) | 0.78 µg/mL (≈ 0.912 µM) | 0.1 µg/mL (≈ 0.117 µM) | 6.25 µg/mL (≈ 7.31 µM)
CC[C@H]1OC(=O)[C@H](C)[C@@H](O[C@H]2C[C@@](C)(OC)[C@@H](O)[C@H](C)O2)[C@H](C)[C@@H](O[C@@H]2O[C@H](C)C[C@H](N(C)C)[C@H]2O)[C@](C)(OC)C[C@@H](C)C(=O)[C@H](C)[C@@H](O)[C@]1(C)O [CLARITHROMYCIN] | 0.78 µg/mL (≈ 1.04 µM) | 0.4 µg/mL (≈ 0.535 µM) | > 50 µg/mL | 0.2 µg/mL (≈ 0.267 µM) | 0.2 µg/mL (≈ 0.267 µM) | 0.78 µg/mL (≈ 1.04 µM) | > 50 µg/mL | ≤ 0.05 µg/mL | ≤ 0.05 µg/mL | ≤ 0.05 µg/mL | ≤ 0.05 µg/mL | > 50 µg/mL | 6.25 µg/mL (≈ 8.36 µM) | 3.13 µg/mL (≈ 4.18 µM) | 6.25 µg/mL (≈ 8.36 µM)
C=C[C@]12OC(=O)N(CCCCn3cnc(-c4cnccn4)c3)[C@@H]1[C@@H](C)C(=O)[C@H](C)C[C@@](C)(OC)[C@H](O[C@@H]1O[C@H](C)C[C@H](N(C)C)[C@H]1O)[C@@H](C)C(=O)[C@@H](C)C(=O)O[C@@H]2CC | 1.56 µg/mL (≈ 1.89 µM) | 0.2 µg/mL (≈ 0.242 µM) | > 50 µg/mL | 0.1 µg/mL (≈ 0.121 µM) | 0.2 µg/mL (≈ 0.242 µM) | 0.1 µg/mL (≈ 0.121 µM) | 0.4 µg/mL (≈ 0.485 µM) | ≤ 0.05 µg/mL | ≤ 0.05 µg/mL | ≤ 0.05 µg/mL | ≤ 0.05 µg/mL | 0.2 µg/mL (≈ 0.242 µM) | 0.78 µg/mL (≈ 0.945 µM) | 0.1 µg/mL (≈ 0.121 µM) | 3.13 µg/mL (≈ 3.79 µM)
C=C[C@]12OC(=O)N(CCCCn3cnc(-c4ccc(OC)nc4)c3C)[C@@H]1[C@@H](C)C(=O)[C@H](C)C[C@@](C)(OC)[C@H](O[C@@H]1O[C@H](C)C[C@H](N(C)C)[C@H]1O)[C@@H](C)C(=O)[C@@H](C)C(=O)O[C@@H]2CC | 1.56 µg/mL (≈ 1.8 µM) | 0.2 µg/mL (≈ 0.23 µM) | > 50 µg/mL | 0.1 µg/mL (≈ 0.115 µM) | 0.4 µg/mL (≈ 0.461 µM) | 0.2 µg/mL (≈ 0.23 µM) | 1.56 µg/mL (≈ 1.8 µM) | ≤ 0.05 µg/mL | ≤ 0.05 µg/mL | ≤ 0.05 µg/mL | ≤ 0.05 µg/mL | 0.4 µg/mL (≈ 0.461 µM) | 1.56 µg/mL (≈ 1.8 µM) | 0.2 µg/mL (≈ 0.23 µM) | 6.25 µg/mL (≈ 7.2 µM)

Results, then the molecule that gave them:

MIC [1] | MIC [2] | MIC [3] | MIC [4] | MIC [5] | MIC [6] | MIC [7] | MIC [8] | MIC [9] | MIC [10] | MIC [11] | MIC [12] | MIC [13] | MIC [14] | MIC [15] | SMILES
1.56 µg/mL (≈ 1.84 µM) | 0.2 µg/mL (≈ 0.236 µM) | > 50 µg/mL | 0.2 µg/mL (≈ 0.236 µM) | 0.1 µg/mL (≈ 0.118 µM) | 0.1 µg/mL (≈ 0.118 µM) | 0.1 µg/mL (≈ 0.118 µM) | ≤ 0.05 µg/mL | ≤ 0.05 µg/mL | ≤ 0.05 µg/mL | ≤ 0.05 µg/mL | 0.1 µg/mL (≈ 0.118 µM) | 0.78 µg/mL (≈ 0.919 µM) | 0.1 µg/mL (≈ 0.118 µM) | 6.25 µg/mL (≈ 7.36 µM) | C=C[C@]12OC(=O)N(CCN(C)Cc3cccc(-c4cccnc4)c3)[C@@H]1[C@@H](C)C(=O)[C@H](C)C[C@@](C)(OC)[C@H](O[C@@H]1O[C@H](C)C[C@H](N(C)C)[C@H]1O)[C@@H](C)C(=O)[C@@H](C)C(=O)O[C@@H]2CC
0.78 µg/mL (≈ 0.93 µM) | 0.1 µg/mL (≈ 0.119 µM) | > 50 µg/mL | 0.2 µg/mL (≈ 0.238 µM) | 0.1 µg/mL (≈ 0.119 µM) | 0.1 µg/mL (≈ 0.119 µM) | 0.78 µg/mL (≈ 0.93 µM) | ≤ 0.05 µg/mL | ≤ 0.05 µg/mL | ≤ 0.05 µg/mL | ≤ 0.05 µg/mL | 0.2 µg/mL (≈ 0.238 µM) | 0.78 µg/mL (≈ 0.93 µM) | 0.2 µg/mL (≈ 0.238 µM) | 3.13 µg/mL (≈ 3.73 µM) | C=C[C@]12OC(=O)N(CCCCn3cnc(-c4cnc(C)cn4)c3)[C@@H]1[C@@H](C)C(=O)[C@H](C)C[C@@](C)(OC)[C@H](O[C@@H]1O[C@H](C)C[C@H](N(C)C)[C@H]1O)[C@@H](C)C(=O)[C@@H](C)C(=O)O[C@@H]2CC
1.56 µg/mL (≈ 1.89 µM) | 0.2 µg/mL (≈ 0.242 µM) | > 50 µg/mL | 0.2 µg/mL (≈ 0.242 µM) | 0.2 µg/mL (≈ 0.242 µM) | 0.1 µg/mL (≈ 0.121 µM) | 0.4 µg/mL (≈ 0.485 µM) | ≤ 0.05 µg/mL | ≤ 0.05 µg/mL | ≤ 0.05 µg/mL | ≤ 0.05 µg/mL | 0.2 µg/mL (≈ 0.242 µM) | 0.78 µg/mL (≈ 0.945 µM) | 0.1 µg/mL (≈ 0.121 µM) | 3.13 µg/mL (≈ 3.79 µM) | C=C[C@]12OC(=O)N(CCCCn3cnc(-c4cncnc4)c3)[C@@H]1[C@@H](C)C(=O)[C@H](C)C[C@@](C)(OC)[C@H](O[C@@H]1O[C@H](C)C[C@H](N(C)C)[C@H]1O)[C@@H](C)C(=O)[C@@H](C)C(=O)O[C@@H]2CC
1.56 µg/mL (≈ 1.86 µM) | 0.4 µg/mL (≈ 0.476 µM) | > 50 µg/mL | 0.2 µg/mL (≈ 0.238 µM) | 0.2 µg/mL (≈ 0.238 µM) | 0.2 µg/mL (≈ 0.238 µM) | 3.13 µg/mL (≈ 3.73 µM) | ≤ 0.05 µg/mL | ≤ 0.05 µg/mL | ≤ 0.05 µg/mL | ≤ 0.05 µg/mL | 12.5 µg/mL (≈ 14.9 µM) | 3.13 µg/mL (≈ 3.73 µM) | 1.56 µg/mL (≈ 1.86 µM) | 6.25 µg/mL (≈ 7.44 µM) | C=C[C@]12OC(=O)N(CCCCn3cnc(-c4ccc(O)nc4)c3)[C@@H]1[C@@H](C)C(=O)[C@H](C)C[C@@](C)(OC)[C@H](O[C@@H]1O[C@H](C)C[C@H](N(C)C)[C@H]1O)[C@@H](C)C(=O)[C@@H](C)C(=O)O[C@@H]2CC
1.56 µg/mL (≈ 1.96 µM) | 0.1 µg/mL (≈ 0.125 µM) | > 50 µg/mL | 0.1 µg/mL (≈ 0.125 µM) | 0.1 µg/mL (≈ 0.125 µM) | 0.1 µg/mL (≈ 0.125 µM) | 3.13 µg/mL (≈ 3.93 µM) | ≤ 0.05 µg/mL | ≤ 0.05 µg/mL | ≤ 0.05 µg/mL | ≤ 0.05 µg/mL | 6.25 µg/mL (≈ 7.84 µM) | 0.4 µg/mL (≈ 0.502 µM) | 0.1 µg/mL (≈ 0.125 µM) | 6.25 µg/mL (≈ 7.84 µM) | C=C[C@]12OC(=O)N(CCCCn3ccc4ncccc43)[C@@H]1[C@@H](C)C(=O)[C@H](C)C[C@@](C)(OC)[C@H](O[C@@H]1O[C@H](C)C[C@H](N(C)C)[C@H]1O)[C@@H](C)C(=O)[C@@H](C)C(=O)O[C@@H]2CC
1.56 µg/mL (≈ 1.8 µM) | 0.2 µg/mL (≈ 0.231 µM) | > 50 µg/mL | 0.2 µg/mL (≈ 0.231 µM) | 0.2 µg/mL (≈ 0.231 µM) | 0.1 µg/mL (≈ 0.115 µM) | 0.78 µg/mL (≈ 0.9 µM) | ≤ 0.05 µg/mL | ≤ 0.05 µg/mL | ≤ 0.05 µg/mL | ≤ 0.05 µg/mL | 0.78 µg/mL (≈ 0.9 µM) | 1.56 µg/mL (≈ 1.8 µM) | 0.2 µg/mL (≈ 0.231 µM) | 12.5 µg/mL (≈ 14.4 µM) | C=C[C@]12OC(=O)N(CCCCn3cnc(-c4ccc(N(C)C)nc4)c3)[C@@H]1[C@@H](C)C(=O)[C@H](C)C[C@@](C)(OC)[C@H](O[C@@H]1O[C@H](C)C[C@H](N(C)C)[C@H]1O)[C@@H](C)C(=O)[C@@H](C)C(=O)O[C@@H]2CC
0.78 µg/mL (≈ 0.912 µM) | 0.1 µg/mL (≈ 0.117 µM) | > 50 µg/mL | 0.1 µg/mL (≈ 0.117 µM) | 0.1 µg/mL (≈ 0.117 µM) | ≤ 0.05 µg/mL | 0.4 µg/mL (≈ 0.468 µM) | ≤ 0.05 µg/mL | ≤ 0.05 µg/mL | ≤ 0.05 µg/mL | ≤ 0.05 µg/mL | 0.4 µg/mL (≈ 0.468 µM) | 0.78 µg/mL (≈ 0.912 µM) | 0.2 µg/mL (≈ 0.234 µM) | 6.25 µg/mL (≈ 7.31 µM) | C=C[C@]12OC(=O)N(CCCCn3cnc(-c4cnc(OC)nc4)c3)[C@@H]1[C@@H](C)C(=O)[C@H](C)C[C@@](C)(OC)[C@H](O[C@@H]1O[C@H](C)C[C@H](N(C)C)[C@H]1O)[C@@H](C)C(=O)[C@@H](C)C(=O)O[C@@H]2CC
